The text below walks through data of article PMC5661635, “Targeting the CXCR4/CXCL12 axis with the peptide antagonist E5 to inhibit breast tumor progression” (Signal Transduction and Targeted Therapy, 2017).

The conditions of series [1]: in vivo; cited from earlier work.
In the next series the test system is 4T1 tumors. Description: 4T1 breast cancer model in BALB/c mice. It is filed as in vivo. The note with it: day 33 after inoculation; E5 40 mg kg^-1 s.c. every other day; PTX 8 mg kg^-1 i.p. once a week; n=9. As to the method:
For animal experiments, 1×10^6 4T1 cells were orthotopically inoculated into the right fourth mammary fat pat of BALB/c mice. Seven days after inoculation, the mice were randomized in six groups (n=9 for each group): the control group, the E5 (40 mg kg^−1) group, the chemotherapeutic drug groups (cyclophosphamide (CTX, 90 mg kg^−1) or paclitaxel (PTX, 8 mg kg^−1)), and a group consisting of E5 combined with one of the drugs. E5 solution was subcutaneously injected around solid tumors every other day, and drugs were intraperitoneally injected once a week. The control tumor-bearing mice were treated an equal volume of solvent. The tumor sizes were measured every four days with a caliper. Tumor volume was calculated according to the formula: V=(a×b^2)/2, where a and b are the maximal and minimal diameter in millimeters, respectively. On day 33 after cell injection, the mice were killed by cervical dislocation. The tumors and main organs from each group were weighed immediately after dissection and preserved at −80 °C for further analysis.

The subject of the next series is 4T1 cells. Description: Drug sensitivity under CXCL12 stimulus or conditional medium (CCK-8). Type of series: cell-based, murine. The note with it: E5 10 μM; MS-5 conditional medium or medium with 200 ng ml^-1 CXCL12; paclitaxel 4, 20, 100 nM, elemene 10, 20, 40 mg l^-1, cisplatin 2, 4, 8 μM; 24 h. The method, then:
Briefly, 1×10^4 4T1 cells were pre-seeded in 96-well culture plates and incubated overnight. Then, the cells were treated with 10 μM E5 in serum-free medium for 2 h, followed by the addition of either complete medium with 200 ng ml^−1 CXCL12 or conditional medium obtained from 48 h of incubation with MS-5 cells for an additional 4 h of treatment. After that, the cells were incubated the chemotherapeutic drugs paclitaxel (4, 20 and 100 nM), elemene (10, 20 and 40 mg l^−1), or cisplatin (2, 4 and 8 μM) for an additional 24 h. The 4T1 cell viability was analyzed using the CCK-8 assay. The absorbance value of 4T1 cells in the absence of drug treatment was set as 100%.

Another series relates to HUVECs. Nature of the series: CCK-8 cell viability assay. It is filed as cell-based, human. Particulars: E5 concentrations up to 100 μM, 24 h. On the technique in general: Tetrazolium assays rely on reduction of a dye to a coloured formazan, in cell work by metabolically active cells.
The conditions of series [2]: E5 every other day in healthy BALB/c mice; cited from earlier work. As to the method:
(§1) The cytotoxicity of blocking CXCR4 with antagonists depends on the concentration and the cell types. For instance, CXCR4 antagonist BKT140 could induce 15–35% cell death at 4 or 8 μM. When its concentration was high as 20 μM, the cell death rate was about 60%.[35]

Series [3] concerns multiple acute myeloid leukemia cell lines. Particulars: E5 below 30 μM; cited from earlier work. The method, then: as §1
For another series, the system named is CXCR4. The note with it: cited from earlier work. The source says: Nevertheless, challenges still exist in clinical applications. […] In addition, it is known that existing pep ...

Usually half-life stands for the time needed for the level to fall by half in the phase considered.

No end group written: not given here.

With LY2510924, the half-life in series [1] is 3 to 5 h. Turning to `CC(=O)O[C@H]1C(=O)[C@@]2(C)[C@H]([C@H](OC(=O)c3ccccc3)[C@]3(O)C[C@H](OC(=O)[C@H](O)[C@@H](NC(=O)c4ccccc4)c4ccccc4)C(C)=C1C3(C)C)[C@]1(OC(C)=O)CO[C@@H]1C[C@@H]2O` [PTX, paclitaxel], the “effect on tumor weight compared with the control group” value in the series on 4T1 tumors is given as “did not show a significant inhibitory effect”.

GGRSFFLLRRIQGCRFRNTVDD [E5]: the “effect on cytotoxic effects of paclitaxel, elemene and cisplatin to 4T1” value in the series on 4T1 cells is reported as “could enhance the cytotoxic effects”. In the series with HUVECs, the “cytotoxicity to HUVECs” value was “did not show obvious cytotoxicity”. In addition, in series [2], the “side effects (organs weight, serum clinical parameters, H&E of heart, kidney, lung, spleen)” value was “did not show detectable side effects”. Besides, in series [3], the “direct induction of cell death” value is reported as “did not induce cell death directly”. Take `c1cc(CN2CCCNCCNCCCNCC2)ccc1CN1CCCNCCNCCCNCC1` [AMD3100, Plerixafor]: the agonist activity result with CXCR4 is recorded as “weak partial agonist activity”.
